Assay results: patent publication US20050153894A1, “p21 peptides” (Cyclacel Limited, priority 1999, published 2005)
Entries after “also recorded” stand apart in the source; their conditions may differ. Where two headings read alike, the source gives them in different places. Square brackets hold non-standard residues; d marks the D form. βLeu = beta-Leu

Legend:
CDK4/Cyclin D1 [1] = molecular target: T1, CDK4/Cyclin D1 (Homo sapiens, UniProt P24385); test: CDK4/Cyclin D1 kinase assay, phosphorylation of GST-Rb; type: biochemical
T1 construct: made in house; host or cells: CDK4: Sf9 insect cells (baculovirus)
Description: (§1) The phosphorylation reaction mixture (total volume 40 μl) consisted of 50 mM HEPES pH 7.4, 20 mM MgCl2, 5 mM EGTA, 2 mM DTT, 20 mM β-glycerophosphate, 2 mM NaF, 1 mM Na3VO4, Protease Inhibitors Cocktail (Sigma, see above), BSA 0.5 mg/ml, 1 μg purified enzyme complex, 10 μl of GST-Rb-Sepharose beads, 100 μM ATP, 0.2 μCi ^32P-ATP. The reaction was carried out for 30 min at 30° C. at constant shaking. At the end of this period 100 μl of 50 mM HEPES, pH 7.4 and 1 mM ATP were added to each well and the total volume was transferred onto GFC filtered plate. The plate was washed 5 times with 200 μl of 50 mM HEPES, pH 7.4 and 1 mM ATP. To each well were added 50 μl scintillant liquid and the radioactivity of the samples was measured on Scintilation counter (Topcount, HP). The IC50 values of different peptides were calculated using GraFit software.
Peptides were synthesized as described above. Cyclin D1 was expressed in E coli BL21(DE3) using PET expression vector and purified from the inclusion bodies. After refolding Cyclin D1 was cross-linked on SulfoLink agarose support (PIERCE). CDK4-6×His was expressed in Sf9 insect cells infected with the appropriate baculovirus construct and purified by metal-affinity chromatography (Quiagen). […] CDK4/Cyclin D1 phosphorilation of Rb was determined by incorporation of radio-labeled phosphate in GST-Rb in 96-well format kinase assay. […] The reaction was carried out for 30 min at 30 C at constant shaking. The GST-Rb-Sepharose beads were washed with 50 mM HEPES and 1 mM ATP and the radioactivity was measured on Scintillation counter (Topcount, HP)

CDK2/Cyclin E [2] = molecular target: T2, CDK2/Cyclin E (Homo sapiens, UniProt P24864); test: CDK2/Cyclin E kinase assay, phosphorylation of GST-Rb; type: biochemical
T2 construct: 6xHis; made in house; host or cells: Sf9 insect cells (baculovirus co-expression)
Description: as §1

Cyclin D1 [3] = molecular target: T3, Cyclin D1 (Homo sapiens, UniProt P24385); test: Competitive Cyclin D1 binding assay (ELISA), immobilised biotinylated p21 (149-159); conditions: for IC50: immobilised p21 (149-159) peptide
T3 construct: made in house
Description: The amount of bound Cyclin D1/Cyclin A was immunodetected and quantified by Turbo-ELISA reagent (PIERCE).
The next important question was if these peptides share the same kinase inhibitory mechanism (bind to the same Cyclin docking site).

CDK2/cyclin A = CDK2/cyclin A (Homo sapiens, UniProt P20248); test: Functional kinase assay, CDK2/cyclin A phosphorylation of GST-pRb(773-928); type: biochemical; conditions: read-out: Inhibitory activity IC50 ± SD, Functional kinase assay
Description: Reactions were stopped on ice, followed by addition of 5 μL/well of glutathione-Sepharose 4B (Amersham Biosciences) and further incubation with shaking for 30 min at room temperature. The mixtures were then filtered on Whatman GF/C filterplates and washed 4 times with 0.2 mL/well of 50 mM HEPES containing 1 mM ATP. Plates were dried, sealed, and scintillant (Microscint 40) was added. Incorporated radioactivity was measured using a scintillation counter (TopCount, Packard Instruments, Pangbourne, Berks, UK). Half-maximal inhibition (IC50) was calculated from dose-response curves.

CDK1/Cyclin B [4] = molecular target: T4, CDK1/Cyclin B (Homo sapiens, UniProt P14635); test: CDK1/Cyclin B kinase assay, phosphorylation of Histone 1; type: biochemical; conditions: for IC50: CDK1-Cyclin B induced phosphorylation of Histone 1
T4 construct: 6xHis; made in house; host or cells: Sf9 insect cells (baculovirus co-expression)
Description: (§2) Histone 1 phosphorylation induced by CDK2/Cyclin E and CDK1/Cyclin B was measured using similar method. The concentration of Histone 1 in the kinase reaction was 1 mg/ml (unless different stated).

CDK1/Cyclin B [5] = molecular target: T4, CDK1/Cyclin B; test: CDK1/Cyclin B kinase assay, phosphorylation of GST-Rb; type: biochemical; conditions: CDK1-Cyclin B induced phosphorylation of GST-Rb
Description: as §1

Cyclin D1 [6] = molecular target: T3, Cyclin D1; test: Pull-down with immobilised biotinylated peptide: cyclin D1; type: binding; conditions: biotinylated peptide on streptavidin-agarose beads
Description: (§3) A biotinylated version of p21(149-159) was used in “pull-down” experiments with the purified CDK sub-units, CDK2, CDK4, cyclin A, cyclin D1, and with the complexes of CDK2/cyclin A or CDK4/cyclin D1 kinases, in order to determine the binding partner of the peptide. The biotinylated peptide was pre-immobilised on streptavidin-agarose beads. […] Both CDK2 and CDK4 were “pulled down”, however, with biotinylated p21(149-159)-streptavidin-agarose beads when they were in a complex with cyclin A or cyclin D1, respectively. Similar results were obtained with cyclin E and CDK2/cyclin E complex. […] Such a method may be utilised either alone or together with a candidate substance to identify cyclin binding moities and/or inhibitors of cyclin-CDK interaction.

CDK4 = molecular target: T5, CDK4 (Homo sapiens, UniProt P11802); test: Pull-down with immobilised biotinylated peptide: CDK4; type: binding; conditions: in the absence of cyclin partner
T5 construct: 6xHis; made in house; host or cells: Sf9 insect cells (baculovirus)
Description: as §3

CDK2 = CDK2 (Homo sapiens, UniProt P24941); test: Pull-down with immobilised biotinylated peptide: CDK2; type: binding; conditions: in the absence of cyclin partner
Description: as §3

Cyclin A = Cyclin A (Homo sapiens, UniProt P20248); test: Pull-down with immobilised biotinylated peptide: cyclin A; type: binding; conditions: biotinylated peptide on streptavidin-agarose beads
Description: as §3

CDK2/Cyclin E [7] = molecular target: T2, CDK2/Cyclin E; test: CDK2/Cyclin E kinase assay, phosphorylation of Histone 1; type: biochemical
Description: as §2

cyclin B = cyclin B (Homo sapiens, UniProt P14635); test: Pull-down with immobilised peptide: cyclin B; type: binding
CDK4/Cyclin D1 [8] = molecular target: T1, CDK4/Cyclin D1; conditions: WO97/42222 and Ball et al., cited from earlier work
CDK2/Cyclin E [9] = molecular target: T2, CDK2/Cyclin E; conditions: GST-Rb phosphorylation; Ball et al.; cited from earlier work
[10] = GST-pRb substrate, [ATP] = 100 μM

T4 sequence (P14635 whole entry): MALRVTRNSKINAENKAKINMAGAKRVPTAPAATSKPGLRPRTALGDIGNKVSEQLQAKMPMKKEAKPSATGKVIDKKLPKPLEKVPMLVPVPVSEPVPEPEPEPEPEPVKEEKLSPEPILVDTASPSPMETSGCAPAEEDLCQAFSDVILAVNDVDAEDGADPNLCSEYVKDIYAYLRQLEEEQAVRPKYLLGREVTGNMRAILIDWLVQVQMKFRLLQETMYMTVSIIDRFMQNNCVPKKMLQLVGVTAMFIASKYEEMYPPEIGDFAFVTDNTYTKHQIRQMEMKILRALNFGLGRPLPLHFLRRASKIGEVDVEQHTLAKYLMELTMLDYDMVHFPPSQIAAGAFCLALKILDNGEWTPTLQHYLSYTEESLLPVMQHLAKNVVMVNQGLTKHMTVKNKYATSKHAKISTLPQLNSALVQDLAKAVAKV
T4 sequence (P06493 whole entry partner): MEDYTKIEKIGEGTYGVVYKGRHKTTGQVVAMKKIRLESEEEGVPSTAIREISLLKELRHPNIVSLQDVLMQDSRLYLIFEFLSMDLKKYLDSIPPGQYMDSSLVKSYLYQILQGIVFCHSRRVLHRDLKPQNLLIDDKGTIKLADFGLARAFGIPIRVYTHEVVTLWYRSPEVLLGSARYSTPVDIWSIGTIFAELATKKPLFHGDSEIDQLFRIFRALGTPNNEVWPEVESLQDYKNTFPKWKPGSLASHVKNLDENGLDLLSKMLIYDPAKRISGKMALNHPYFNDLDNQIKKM
T3 sequence (P24385 whole entry): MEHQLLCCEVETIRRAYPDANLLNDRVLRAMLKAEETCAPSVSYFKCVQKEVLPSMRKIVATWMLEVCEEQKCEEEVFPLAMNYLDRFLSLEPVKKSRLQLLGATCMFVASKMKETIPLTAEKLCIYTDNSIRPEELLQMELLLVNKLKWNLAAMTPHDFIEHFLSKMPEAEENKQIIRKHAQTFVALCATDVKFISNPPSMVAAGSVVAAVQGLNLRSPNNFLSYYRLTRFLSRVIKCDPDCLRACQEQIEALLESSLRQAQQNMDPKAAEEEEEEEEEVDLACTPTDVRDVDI
T1 sequence (P24385 whole entry): as above
T1 sequence (P11802 whole entry partner): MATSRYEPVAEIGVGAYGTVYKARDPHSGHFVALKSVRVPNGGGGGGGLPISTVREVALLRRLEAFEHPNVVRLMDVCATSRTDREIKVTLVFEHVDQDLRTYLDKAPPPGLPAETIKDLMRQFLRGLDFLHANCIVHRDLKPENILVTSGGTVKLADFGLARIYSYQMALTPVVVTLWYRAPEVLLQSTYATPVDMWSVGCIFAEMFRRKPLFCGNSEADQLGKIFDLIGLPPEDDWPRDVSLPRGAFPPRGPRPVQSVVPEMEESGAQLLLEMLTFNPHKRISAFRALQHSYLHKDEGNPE
Sequence of cyclin B (P14635 whole entry): as the sequence (P14635 whole entry) above
Sequence of Cyclin A (P20248 whole entry): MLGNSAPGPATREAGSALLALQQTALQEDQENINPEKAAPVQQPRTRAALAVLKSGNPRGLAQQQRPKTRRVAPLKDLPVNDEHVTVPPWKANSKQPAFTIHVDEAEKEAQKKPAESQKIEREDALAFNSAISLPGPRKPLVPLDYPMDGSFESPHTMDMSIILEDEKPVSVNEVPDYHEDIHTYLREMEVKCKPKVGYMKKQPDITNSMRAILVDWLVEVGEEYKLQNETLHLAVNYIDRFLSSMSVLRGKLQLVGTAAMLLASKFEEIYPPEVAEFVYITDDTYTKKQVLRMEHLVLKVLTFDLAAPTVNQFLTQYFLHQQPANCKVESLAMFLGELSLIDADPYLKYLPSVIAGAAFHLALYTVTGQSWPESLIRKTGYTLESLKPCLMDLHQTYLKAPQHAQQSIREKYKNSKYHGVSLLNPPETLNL
T5 sequence (P11802 whole entry, species assumed): as the sequence (P11802 whole entry partner) above

For `CC(C)C[C@H](NC(=O)[C@H](CC(=O)O)NC(=O)[C@H](CC(C)C)NC(=O)[C@H](CCCNC(=N)N)NC(=O)[C@H](CCCNC(=N)N)NC(=O)[C@H](CCCCN)NC(=O)[C@H](CO)NC(=O)[C@@H](N)Cc1c[nH]cn1)C(N)=O`, the “inhibition of CDK4/Cyclin D1 phosphorylation of GST-Rb, in words” value (CDK4/Cyclin D1 [1]) was “not able to inhibit”, the “Kinase Inhibition Cyclin D1/CDK4 % Inhibition” value (CDK4/Cyclin D1 [1]; phosphorylation of pRb) was 24% and the “Kinase Inhibition Cyclin E/CDK2 % Inhibition” value (CDK2/Cyclin E [2]; phosphorylation of pRb) was 74%. The “competition with Biotin-DFYHSKRRLIF for binding to Cyclin D1, in words” value (Cyclin D1 [3]) was “not able” and the IC50 (Cyclin D1 [3]) was > 200 µM.

Work on `CC(=O)N[C@@H](CC(C)C)C(=O)N[C@@H](CC(N)=O)C(=O)N[C@@H](Cc1ccc(F)cc1)C(N)=O` [VI.42] yielded an IC50 (CDK2/cyclin A) of 139 ± 10 µM.

With `CC[C@H](C)[C@H](NC(=O)[C@H](CC(C)C)NC(=O)[C@H](CCCNC(=N)N)NC(=O)[C@H](CCCNC(=N)N)NC(=O)[C@H](CCCCN)NC(=O)[C@H](C)NC(=O)[C@H](Cc1c[nH]cn1)NC(=O)[C@H](Cc1ccc(O)cc1)NC(=O)[C@H](Cc1ccccc1)NC(=O)[C@@H](N)CC(=O)O)C(=O)N[C@@H](Cc1ccccc1)C(=O)N[C@@H](CO)C(N)=O` [p21(149-160)Ser153Ala] the IC50 (CDK1/Cyclin B [4]) was > 200 µM, the IC50 (CDK1/Cyclin B [5]) was > 200 µM and the IC50 (CDK2/Cyclin E [2]; read-out: IC50, CDK2-Cyclin E induced phosphorylation of GST-Rb) was 0.04 µM.

With `CC(C)C[C@H](NC(=O)[C@H](CC(=O)O)NC(=O)[C@H](CC(C)C)NC(=O)[C@H](CCCNC(=N)N)NC(=O)[C@H](CCCNC(=N)N)NC(=O)[C@H](CCCCN)NC(=O)[C@@H](NC(=O)[C@@H]1CCCN1)C(C)C)C(N)=O` [reference compound] the “inhibition of CDK4/Cyclin D1 phosphorylation of GST-Rb, in words” value (CDK4/Cyclin D1 [1]) was “not able to inhibit”, the “Kinase Inhibition Cyclin D1/CDK4 % Inhibition” value (CDK4/Cyclin D1 [1]; phosphorylation of pRb) was 58% and the IC50 (CDK4/Cyclin D1 [1]; phosphorylation of pRb, read-out: Kinase Inhibition Cyclin D1/CDK4 IC50) was 99 µM. For the same compound, the “Kinase Inhibition Cyclin E/CDK2 % Inhibition” value (CDK2/Cyclin E [2]; phosphorylation of pRb) was 74%, the IC50 (CDK2/Cyclin E [2]; phosphorylation of pRb, read-out: Kinase Inhibition Cyclin E/CDK2 IC50) was 2.1 µM and the “competition with Biotin-DFYHSKRRLIF for binding to Cyclin D1, in words” value (Cyclin D1 [3]) was “not able”. The IC50 (Cyclin D1 [3]) was > 100 µM.

In the case of H-DFYHSKRRLIF-NH2 [p21(149-159)], the “binding to cyclin D1 in pull-down” value (Cyclin D1 [6]) is reported as “bound”, the “binding to CDK4 in pull-down” value (CDK4) is reported as “failed to interact” and the “binding to CDK2 in pull-down” value (CDK2) is reported as “failed to interact”. For the same compound, the “binding to cyclin A in pull-down” value (Cyclin A) was “bound” and the IC50 (CDK1/Cyclin B [5]) was > 200 µM.

In the case of H-DFYHSKRRLIFS-NH2 [p21(149-160)], the “inhibition of CDK4/Cyclin D1 phosphorylation of GST-Rb, in words” value (CDK4/Cyclin D1 [1]) is reported as “very similar activity”, the inhibition at 100 µM (CDK4/Cyclin D1 [1]; [10]) is reported as 70% and the “inhibition of CDK2/Cyclin E phosphorylation of Histone 1, in words” value (CDK2/Cyclin E [7]) is reported as “completely inactive; also recorded: did not inhibit”. The “inhibition of CDK2/Cyclin E phosphorylation of Histone 1, in words” value (CDK2/Cyclin E [7]; listed as p21 (149-160)) was “do not inhibit”, the “inhibition of CDK1/cyclin B phosphorylation of histone H1, in words” value (CDK1/Cyclin B [4]) was “did not have any significant effect” and the IC50 (CDK1/Cyclin B [4]) was > 200 µM. The IC50 (CDK1/Cyclin B [5]) was > 200 µM, the “inhibition of CDK2/Cyclin E phosphorylation of GST-Rb, in words” value (CDK2/Cyclin E [2]) was “specifically inhibit” and the “pull-down of cyclin B (monomer or complex with CDK1)” value (cyclin B) was “unable to precipitate”.

For KRRLIFSK [reference compound], the “concentration for inhibitory activity against cyclin D1-CDK4 relative to parent p21(141-160)” value (CDK4/Cyclin D1 [8]) is listed as 1000 times, the “Kinase Inhibition Cyclin D1/CDK4 % Inhibition” value (CDK4/Cyclin D1 [1]; [10]) is listed as 20% and the “Kinase Inhibition Cyclin E/CDK2 % Inhibition” value (CDK2/Cyclin E [2]; [10]) is listed as 60%. The “Kinase Inhibition Cyclin E/CDK2 IC30” value (CDK2/Cyclin E [2]; [10]) was >200 µM.

VI.38 (Ac-RR[βLeu]F-NH2) gave an IC50 (CDK2/cyclin A; recombinant human CDK2/cyclin A, GST-pRb(773-928) substrate, 30 min at 30° C) of 216 µM.

For “p21(141-160): 20-residue peptide derived from the C-terminus of p21^WAF1 (residues 141-160), Ball et al.”, the IC50 (CDK4/Cyclin D1 [8]; Asp149Ala effect said not reproducible, read-out: IC50, cyclin D1-CDK4 inhibition) is given as 0.1 µM and the “activity against cyclinD1/CDK4 relative to cyclinE/CDK2” value (CDK2/Cyclin E [9]) is given as 40 times.
